According to the supplement of paper PMC8967900:

Experiments:
Experiment in all cases: selective drug sensitivity score (sDSS, relative to normal bone marrow) (sDSS (score)); higher = more potent and effective on the cell line relative to normal bone marrow cells
Settings in all cases: 72 h
MOLT-4 = system: MOLT-4
COG-LL-402h = system: COG-LL-402h
P12-ICHIKAWA = system: P12-ICHIKAWA
RPMI-8402 = system: RPMI-8402
KASUMI-9 = system: KASUMI-9
380 = system: 380
NALM-16 = system: NALM-16
NALL-1 = system: NALL-1
COG-LL-319h = system: COG-LL-319h
COG-LL-355h = system: COG-LL-355h
HPB-ALL = system: HPB-ALL
MN-60 = system: MN-60
KASUMI-10 = system: KASUMI-10
REH = system: REH
MHH-CALL-3 = system: MHH-CALL-3
TMD5 = system: TMD5
KOPN-8 = system: KOPN-8
LC4-1 = system: LC4-1
DND-41 = system: DND-41
MOLT-14 = system: MOLT-14
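Also: ALL cell lines in 384-well plates, five doses spanning 10,000-fold, each plate scaled between vehicle and 100 µmol/L benzalkonium chloride controls, sDSS an adapted area-under-curve metric.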

Structure (SMILES) | selective drug sensitivity score (MOLT-4) | selective drug sensitivity score (COG-LL-402h) | selective drug sensitivity score (P12-ICHIKAWA) | selective drug sensitivity score (RPMI-8402) | selective drug sensitivity score (KASUMI-9) | selective drug sensitivity score 380 | selective drug sensitivity score (NALM-16) | selective drug sensitivity score (NALL-1) | selective drug sensitivity score (COG-LL-319h) | selective drug sensitivity score (COG-LL-355h) | selective drug sensitivity score (HPB-ALL) | selective drug sensitivity score (MN-60) | selective drug sensitivity score (KASUMI-10) | selective drug sensitivity score (REH) | selective drug sensitivity score (MHH-CALL-3) | selective drug sensitivity score (TMD5) | selective drug sensitivity score (KOPN-8) | selective drug sensitivity score (LC4-1) | selective drug sensitivity score (DND-41) | selective drug sensitivity score (MOLT-14)
C[C@H](Nc1ncnc2[nH]cnc12)c1cc2ccc(F)cc2nc1-c1ccccn1 [AMG319] (top concentration 1000 nM) | -1.42 | 5.88 | -1.42 | -1.42 | 1.18 | -1.02 | -1.42 | -1.42 | 10.1 | 4.58 | -1.42 | -1.42 | -1.42 | -1.02 | -0.42 | -1.42 | 6.38 | -1.42 | -0.92 | -1.42
Cc1cn(-c2cc(NC(=O)c3ccc(C)c(Nc4nccc(-c5cccnc5)n4)c3)cc(C(F)(F)F)c2)cn1 [Nilotinib] (top concentration 10000 nM) | 3.6 | 0 | 0.6 | 1.8 | 4.6 | 6.1 | 0 | 5.8 | 8.2 | 0.6 | 0 | 0 | 0 | 2.5 | 0.5 | 21 | 9.7 | 9.1 | 2.8 | 2.1
O=C(NOC[C@H](O)CO)c1ccc(F)c(F)c1Nc1ccc(I)cc1F (top concentration 1000 nM) | -1.96 | 1.84 | 0.84 | -3.86 | 4.44 | 2.24 | 2.74 | -4.16 | 2.44 | 6.94 | 0.74 | -3.56 | -2.86 | -4.16 | 14.9 | 2.94 | 10.1 | 6.24 | 8.64 | 8.84
COc1ccc2[nH]cc(/C=C3\C(=O)Nc4ccc(NC(=O)CCN5CCCCC5)cc43)c2c1 (top concentration 50000 nM) | -1.12 | 1.18 | -0.52 | 2.68 | 1.28 | -4.62 | -2.42 | -2.52 | -4.42 | 0.28 | -3.32 | 0.28 | 1.78 | -1.62 | -5.32 | 0.28 | 1.38 | -0.42 | 1.38 | 0.98
CO[C@H]1C(=O)[C@]2(C)[C@@H](OC)C[C@H]3OC[C@@]3(OC(C)=O)[C@H]2[C@H](OC(=O)c2ccccc2)[C@]2(O)C[C@H](OC(=O)[C@H](O)[C@@H](NC(=O)OC(C)(C)C)c3ccccc3)C(C)=C1C2(C)C [Cabazitaxel] (top concentration 1000 nM) | 18.4 | 17.1 | 3.08 | 15.5 | 18.7 | 25.7 | 11.4 | 11.4 | 16.9 | 2.58 | 11.6 | -5.32 | 12.4 | 17.9 | 6.78 | 2.88 | 17.9 | 22.4 | -4.32 | 22.7
COc1c(OCCCN2CCOCC2)ccc2c1N=C(NC(=O)c1cnc(N)nc1)N1CCN=C21 [Copanlisib] (top concentration 1000 nM) | 4.48 | 8.88 | -0.42 | 2.58 | 5.98 | 14.4 | 2.58 | -0.62 | 3.18 | 12.2 | 0.48 | 0.48 | -1.32 | 8.28 | -0.62 | -5.32 | 4.98 | -4.22 | -2.72 | -3.92
C=CCn1c(=O)c2cnc(Nc3ccc(N4CCN(C)CC4)cc3)nc2n1-c1cccc(C(C)(C)O)n1 [AZD1775] (top concentration 10000 nM) | 14.6 | 10.2 | 13.6 | 13.9 | 14.6 | 10.8 | 6.64 | 4.84 | 18.8 | 7.24 | 9.44 | 2.74 | 7.84 | 13.5 | 5.64 | 4.94 | 14.1 | 13.7 | 11.5 | 14.3
Nc1nc(NC2CC2)cc(-c2cccc(Cl)c2Cl)n1 [TH588] (top concentration 25000 nM) | 9.12 | 3.72 | 3.72 | 5.72 | 7.92 | -0.58 | 5.32 | -0.28 | 3.82 | 2.42 | 3.92 | -0.58 | 6.22 | 5.82 | -0.58 | -0.28 | 7.22 | 8.72 | 5.82 | 10.8
CN(C)Cc1c(C(=O)NCCOc2ccc(C(=O)NO)cc2)oc2ccccc12 [Abexinostat] (top concentration 10000 nM) | 3.76 | 13.4 | 4.66 | 4.96 | 8.26 | 7.56 | 0.56 | 1.06 | 8.36 | 3.36 | 6.76 | -3.04 | 6.06 | 2.26 | 15.4 | 5.36 | 9.26 | 4.36 | 4.46 | 7.36
